The target of this experiment is T1, recombinant human androgen receptor (hAR) (Homo sapiens, UniProt P10275).
T1 construct: made in house; host or cells: baculovirus/Sf9 insect cells (crude extract)
T1 sequence (P10275 1-920): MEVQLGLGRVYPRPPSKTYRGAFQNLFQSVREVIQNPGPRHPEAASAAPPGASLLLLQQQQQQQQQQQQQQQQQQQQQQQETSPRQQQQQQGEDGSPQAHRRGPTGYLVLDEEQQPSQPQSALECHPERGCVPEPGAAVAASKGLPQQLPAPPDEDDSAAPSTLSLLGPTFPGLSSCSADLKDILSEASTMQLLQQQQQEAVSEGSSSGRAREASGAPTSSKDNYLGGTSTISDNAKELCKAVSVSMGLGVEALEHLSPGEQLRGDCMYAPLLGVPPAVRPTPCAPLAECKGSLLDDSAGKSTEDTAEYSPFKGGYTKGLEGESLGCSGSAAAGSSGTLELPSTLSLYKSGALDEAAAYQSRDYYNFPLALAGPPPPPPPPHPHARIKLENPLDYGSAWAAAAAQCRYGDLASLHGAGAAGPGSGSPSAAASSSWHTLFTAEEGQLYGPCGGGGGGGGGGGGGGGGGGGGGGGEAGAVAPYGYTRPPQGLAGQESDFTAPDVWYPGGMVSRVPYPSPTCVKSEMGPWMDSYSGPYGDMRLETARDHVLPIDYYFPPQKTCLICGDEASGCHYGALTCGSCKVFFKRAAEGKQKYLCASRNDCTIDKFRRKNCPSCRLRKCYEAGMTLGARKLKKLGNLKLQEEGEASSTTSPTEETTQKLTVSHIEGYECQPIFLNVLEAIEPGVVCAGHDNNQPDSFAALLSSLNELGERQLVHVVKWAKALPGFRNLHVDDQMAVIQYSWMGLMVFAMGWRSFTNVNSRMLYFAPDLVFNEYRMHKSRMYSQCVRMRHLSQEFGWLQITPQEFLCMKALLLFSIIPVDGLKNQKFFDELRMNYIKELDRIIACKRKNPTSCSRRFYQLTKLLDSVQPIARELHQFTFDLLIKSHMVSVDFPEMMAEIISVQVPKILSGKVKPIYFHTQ
The experiment in a line: Human androgen receptor binding analysis (3H-DHT competitive binding). Here is the method:
The following is a brief description of the assay that determines the affinity of a compound for the recombinant human androgen receptor (hAR). Competitive binding analysis is performed on baculovirus/Sf9 generated hAR extracts in the presence or absence of differing concentrations of drug and a fixed concentration of ^3H-dihydrotestosterone (^3H-DHT) as tracer. This binding assay method is a modification of a protocol previously described (Chang, et. al. J. Steroid Biochem. 20(1):11-17 1984). Briefly, progressively decreasing concentrations of compounds are incubated in the presence of hAR extract (Chang et al. P.N.A.S. Vol. 89, pp. 5546-5950, 1992), hydroxylapatite and 1 nM ^3H-DHT for one hour at 4° C. Subsequently, the binding reactions are washed three times to completely remove excess unbound ^3H-DHT. hAR bound ^3H-DHT levels are determined in the presence of compounds (=competitive binding) and compared to levels bound when no competitor is present (=maximum binding). Compound binding affinity to the hAR is expressed as the concentration of compound at which one half of the maximum binding is inhibited (the IC50).

Broadly, the IC50 is the midpoint of a concentration-inhibition curve.

For `CC[C@H]1CCCCN1c1ccc(C#N)c(C(F)(F)F)c1` [Example 1, 4-(2-(S)-Ethyl-piperidin-1-yl)-2-trifluoromethyl-benzonitrile], the IC50 stood at 5.21 nM.

Source of the values: patent US20080045504A1, “Benzonitrile Derivatives to Treat Musculoskeletal Frailty” (PFIZER PRODUCTS INC., priority 2004, published 2008).
